Legend:
D2 (h) = D2 (h) (Homo sapiens, UniProt P14416); assay: Binding to membrane receptors of central neuromediators of human origin: D2; settings: D2 (h) receptor binding
Text: (§1) The results of this study of binding to these various membrane receptors of central neuromediators of human origin are presented in Table 1.

M1 (h) = target: T1, M1 (h) (Homo sapiens, UniProt P11229); assay: Binding to membrane receptors of central neuromediators of human origin: M1; settings: M1 (h) receptor binding
T1 sequence (P11229 1-460): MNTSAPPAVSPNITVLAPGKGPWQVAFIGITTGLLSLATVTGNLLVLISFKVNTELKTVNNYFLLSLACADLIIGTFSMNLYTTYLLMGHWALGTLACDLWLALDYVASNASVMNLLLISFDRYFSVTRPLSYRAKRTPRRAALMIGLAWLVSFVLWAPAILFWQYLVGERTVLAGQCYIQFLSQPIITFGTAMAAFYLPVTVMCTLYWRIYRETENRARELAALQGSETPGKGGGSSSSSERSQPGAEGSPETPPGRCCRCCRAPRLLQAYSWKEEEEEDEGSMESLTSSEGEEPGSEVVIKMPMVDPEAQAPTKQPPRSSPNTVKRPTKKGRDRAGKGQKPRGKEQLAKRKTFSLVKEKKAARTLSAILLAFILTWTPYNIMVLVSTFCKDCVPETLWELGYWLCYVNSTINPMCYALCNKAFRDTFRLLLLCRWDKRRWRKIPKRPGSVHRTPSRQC
Text: as §1

M2 (h) = target: T2, M2 (h) (Homo sapiens, UniProt P08172); assay: Binding to membrane receptors of central neuromediators of human origin: M2; settings: M2 (h) receptor binding
T2 sequence (P08172 1-466): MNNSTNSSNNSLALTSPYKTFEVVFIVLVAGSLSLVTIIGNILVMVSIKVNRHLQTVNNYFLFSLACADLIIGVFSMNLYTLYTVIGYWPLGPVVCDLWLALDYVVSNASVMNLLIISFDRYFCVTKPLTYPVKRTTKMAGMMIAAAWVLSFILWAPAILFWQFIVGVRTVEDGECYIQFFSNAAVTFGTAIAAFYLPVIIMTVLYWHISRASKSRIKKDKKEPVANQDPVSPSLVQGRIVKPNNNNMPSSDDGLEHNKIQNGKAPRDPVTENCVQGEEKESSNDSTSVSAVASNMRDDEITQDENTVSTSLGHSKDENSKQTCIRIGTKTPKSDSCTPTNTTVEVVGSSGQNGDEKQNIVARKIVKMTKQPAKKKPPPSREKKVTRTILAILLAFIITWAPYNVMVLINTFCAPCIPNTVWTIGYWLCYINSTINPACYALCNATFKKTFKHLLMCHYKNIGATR
Text: as §1

M3 (h) = M3 (h) (Homo sapiens, UniProt P20309); assay: Binding to membrane receptors of central neuromediators of human origin: M3; settings: M3 (h) receptor binding
Chain of M3 (h) (P20309 whole entry): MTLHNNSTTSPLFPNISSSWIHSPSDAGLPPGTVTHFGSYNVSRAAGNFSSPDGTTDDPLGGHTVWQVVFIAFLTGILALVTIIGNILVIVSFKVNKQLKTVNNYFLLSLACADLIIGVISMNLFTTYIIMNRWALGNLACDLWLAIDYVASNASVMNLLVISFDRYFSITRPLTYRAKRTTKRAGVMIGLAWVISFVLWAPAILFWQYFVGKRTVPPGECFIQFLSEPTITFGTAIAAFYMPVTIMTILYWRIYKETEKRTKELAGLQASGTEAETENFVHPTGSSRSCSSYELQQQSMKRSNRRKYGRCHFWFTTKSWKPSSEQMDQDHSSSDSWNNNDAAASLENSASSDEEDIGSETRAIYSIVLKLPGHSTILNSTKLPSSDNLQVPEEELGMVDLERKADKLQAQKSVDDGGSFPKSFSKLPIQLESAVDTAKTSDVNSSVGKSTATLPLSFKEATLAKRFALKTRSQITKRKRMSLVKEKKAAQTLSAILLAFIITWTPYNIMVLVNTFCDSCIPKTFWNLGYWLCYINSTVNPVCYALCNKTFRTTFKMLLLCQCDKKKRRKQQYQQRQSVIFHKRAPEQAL
Text: as §1

5-HT1A (h) = target: T3, 5-HT1A (h) (Homo sapiens, UniProt P08908); assay: Binding to membrane receptors of central neuromediators of human origin: 5-HT1A; settings: 5-HT1A (h) receptor binding
T3 sequence (P08908 1-422): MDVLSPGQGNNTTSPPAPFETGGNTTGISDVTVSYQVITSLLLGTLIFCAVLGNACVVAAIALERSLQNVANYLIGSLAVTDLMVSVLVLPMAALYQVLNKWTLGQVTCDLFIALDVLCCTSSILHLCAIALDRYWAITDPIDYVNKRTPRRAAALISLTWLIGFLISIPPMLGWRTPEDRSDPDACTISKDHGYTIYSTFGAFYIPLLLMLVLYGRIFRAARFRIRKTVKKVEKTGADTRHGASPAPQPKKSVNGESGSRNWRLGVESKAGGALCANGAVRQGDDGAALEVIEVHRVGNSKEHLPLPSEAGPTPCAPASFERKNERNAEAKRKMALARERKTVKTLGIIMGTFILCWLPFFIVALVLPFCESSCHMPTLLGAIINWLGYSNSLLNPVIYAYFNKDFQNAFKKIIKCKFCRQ
Text: as §1

5-HT2A (h) = 5-HT2A (h) (Homo sapiens, UniProt P28223); assay: Binding to membrane receptors of central neuromediators of human origin: 5-HT2A; settings: 5-HT2A (h) receptor binding
Chain of 5-HT2A (h) (P28223 whole entry): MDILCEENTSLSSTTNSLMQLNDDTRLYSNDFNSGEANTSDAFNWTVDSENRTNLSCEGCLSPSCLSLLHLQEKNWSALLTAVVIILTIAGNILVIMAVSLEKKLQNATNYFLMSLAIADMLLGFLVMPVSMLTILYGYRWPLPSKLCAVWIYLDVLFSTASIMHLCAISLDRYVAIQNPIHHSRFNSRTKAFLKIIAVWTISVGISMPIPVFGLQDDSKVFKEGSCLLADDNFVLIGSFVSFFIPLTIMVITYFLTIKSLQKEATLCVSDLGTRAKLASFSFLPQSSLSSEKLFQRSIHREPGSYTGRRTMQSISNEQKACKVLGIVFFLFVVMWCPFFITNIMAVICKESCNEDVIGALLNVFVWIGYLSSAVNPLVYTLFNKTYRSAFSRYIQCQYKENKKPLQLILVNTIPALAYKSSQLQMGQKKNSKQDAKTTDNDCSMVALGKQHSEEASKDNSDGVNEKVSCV

5-HT2c (h) = 5-HT2c (h) (Homo sapiens, UniProt P28335); assay: Binding to membrane receptors of central neuromediators of human origin: 5-HT2c
Chain of 5-HT2c (h) (P28335 33-458): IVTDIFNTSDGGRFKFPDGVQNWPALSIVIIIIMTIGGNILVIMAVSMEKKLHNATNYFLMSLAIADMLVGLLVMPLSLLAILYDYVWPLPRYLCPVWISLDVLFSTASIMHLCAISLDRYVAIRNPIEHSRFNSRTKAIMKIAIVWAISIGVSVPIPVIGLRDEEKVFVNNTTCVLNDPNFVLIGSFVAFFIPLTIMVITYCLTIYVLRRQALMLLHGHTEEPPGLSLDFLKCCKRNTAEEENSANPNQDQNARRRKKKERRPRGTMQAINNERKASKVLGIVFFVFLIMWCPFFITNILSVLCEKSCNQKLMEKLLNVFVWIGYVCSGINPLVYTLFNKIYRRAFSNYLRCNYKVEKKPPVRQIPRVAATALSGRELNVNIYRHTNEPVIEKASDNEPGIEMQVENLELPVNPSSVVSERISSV

H1 (h) = H1 (h) (Homo sapiens, UniProt P35367); assay: Binding to membrane receptors of central neuromediators of human origin: H1; settings: H1 (h) receptor binding
Chain of H1 (h) (P35367 whole entry): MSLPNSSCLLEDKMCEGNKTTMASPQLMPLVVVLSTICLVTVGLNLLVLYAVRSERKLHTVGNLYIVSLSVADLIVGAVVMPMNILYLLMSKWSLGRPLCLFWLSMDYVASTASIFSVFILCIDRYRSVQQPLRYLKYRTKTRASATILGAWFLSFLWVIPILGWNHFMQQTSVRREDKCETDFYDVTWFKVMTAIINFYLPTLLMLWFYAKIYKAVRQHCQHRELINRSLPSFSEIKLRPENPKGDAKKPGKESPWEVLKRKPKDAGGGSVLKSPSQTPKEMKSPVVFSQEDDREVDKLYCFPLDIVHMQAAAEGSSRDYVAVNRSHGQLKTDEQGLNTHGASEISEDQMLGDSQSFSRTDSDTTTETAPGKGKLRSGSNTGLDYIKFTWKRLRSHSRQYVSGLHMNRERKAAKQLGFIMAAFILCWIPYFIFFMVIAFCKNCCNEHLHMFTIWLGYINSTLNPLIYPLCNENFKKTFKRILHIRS
Text: as §1

mice = assay: Actimetry test (sedative activity, spontaneous motor activity); type: in vivo; settings: spontaneous motor activity recorded for 10 minutes
Procedure: The sedative activity of the product was determined with mice according to an actimetry test. The actimeter is a device composed of 6 transparent cages in which the animals are individually placed. Photoelectric cells make it possible to detect movements in the cages (by cutting the beam). The spontaneous motor activity is recorded for 10 minutes. The results are expressed in the mean form and in the form of percentage of activity with respect to the control batch. The results are expressed in Table 2.

Chain of D2 (h) (P14416 whole entry): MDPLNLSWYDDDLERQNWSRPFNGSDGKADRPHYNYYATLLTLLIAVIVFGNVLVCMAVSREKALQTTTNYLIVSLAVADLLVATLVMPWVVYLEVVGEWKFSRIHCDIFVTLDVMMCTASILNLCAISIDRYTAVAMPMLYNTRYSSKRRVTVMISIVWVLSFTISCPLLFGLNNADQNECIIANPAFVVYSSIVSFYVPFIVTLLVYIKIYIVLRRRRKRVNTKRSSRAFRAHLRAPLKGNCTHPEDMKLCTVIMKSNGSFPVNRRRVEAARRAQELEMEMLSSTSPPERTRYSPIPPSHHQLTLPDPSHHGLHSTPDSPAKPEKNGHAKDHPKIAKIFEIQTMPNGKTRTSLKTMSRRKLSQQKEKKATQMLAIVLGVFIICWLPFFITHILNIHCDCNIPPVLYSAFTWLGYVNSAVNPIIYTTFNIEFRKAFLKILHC

What does the source list for `CNCC(C)CN1c2ccccc2Sc2ccc(C#N)cc21` (stereo not drawn) [2-cyano-10-(2-methyl-3-(methylamino)propyl)phenothiazine]?
IC50 (D2 (h)): 31 nM; Ki (D2 (h)): 12 nM; IC50 (M1 (h)): 21 nM; Ki (M1 (h)): 17 nM; IC50 (M2 (h)): 368 nM; Ki (M2 (h)): 251 nM; IC50 (M3 (h)): 5490 nM; Ki (M3 (h)): 3920 nM; IC50 (5-HT1A (h)): 460 nM; Ki (5-HT1A (h)): 184 nM; IC50 (5-HT2A (h)): 9 nM; Ki (5-HT2A (h)): 1.5 nM; IC50 (5-HT2c (h); 5-HT2c (h) receptor binding): 23 nM; Ki (5-HT2c (h); 5-HT2c (h) receptor binding): 8.5 nM; affinity for 5-HT2c receptors (5-HT2c (h); in words): high affinity; IC50 (H1 (h)): 22 nM; Ki (H1 (h)): 9.3 nM; % of activity/control (mice; dose 0.75 mg/kg): 61%; % of activity/control (mice; dose 1 mg/kg): 63%; % of activity/control (mice; dose 2 mg/kg): 26%; % of activity/control (mice; dose 4 mg/kg): 9%

Reference: patent US7538106B2, “Application of 2-cyano-10- (2-methyl-3- (methylamino)- propyl) phenothiazine or a pharmaceutically acceptable salt as medicament” (Aventis Pharmaceuticals Inc., priority 2003, dated 2009)
